The source of these data is ChEMBL document CHEMBL1135258, “Substrate spectrum of tyrocidine thioesterase probed with randomized peptide N-acetylcysteamine thioesters” (Bioorg Med Chem Lett, 2002).

Assay [1] concerns the target T1, Thioesterase GrsT homolog tycF (Brevibacillus brevis) (UniProt O30412).
T1 sequence (whole entry): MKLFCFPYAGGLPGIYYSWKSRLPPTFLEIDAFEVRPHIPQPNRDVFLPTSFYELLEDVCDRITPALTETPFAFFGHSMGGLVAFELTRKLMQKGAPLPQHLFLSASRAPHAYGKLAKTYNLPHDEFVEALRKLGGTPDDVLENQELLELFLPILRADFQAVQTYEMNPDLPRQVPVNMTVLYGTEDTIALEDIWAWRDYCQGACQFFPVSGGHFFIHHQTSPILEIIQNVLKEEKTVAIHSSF
Description: Apparent kinetic constant (Kcat) for tyrocidine thioesterase amplified from Bacillus brevis (ATCC8185).

Assay [2] has as its target T1, Thioesterase GrsT homolog tycF (Brevibacillus brevis). Description: Catalytic efficiency (Kcat/Km) was determined. Details: unit not given here.

Consider `CC(=O)NCCSC(=O)[C@H](CC(C)C)NC(=O)[C@H](CCCN)NC(=O)[C@@H](NC(=O)[C@H](Cc1ccc(O)cc1)NC(=O)[C@H](CCC(N)=O)NC(=O)[C@H](CC(N)=O)NC(=O)[C@H](Cc1ccc(O)cc1)NC(=O)[C@H](Cc1ccccc1)NC(=O)[C@@H]1CCCN1C(=O)[C@H](N)Cc1ccccc1)C(C)C`, for which, in assay [1], the k cat was determined as 0.183 s⁻¹. Moreover, the Ratio in assay [2] worked out at 0.17.

Turning to `CC(=O)NCCSC(=O)[C@H](CC(C)C)NC(=O)[C@H](CCCN)NC(=O)[C@@H](NC(=O)[C@H](Cc1ccc(O)cc1)NC(=O)[C@H](CCC(N)=O)NC(=O)[C@H](CC(N)=O)NC(=O)[C@H](CCCN=C(N)N)NC(=O)[C@H](Cc1ccccc1)NC(=O)[C@@H]1CCCN1C(=O)[C@H](N)Cc1ccccc1)C(C)C`, the k cat in assay [1] was 0.2 s⁻¹. The Ratio in assay [2] came out at 0.51.

With `CC(=O)NCCSC(=O)[C@H](CC(C)C)NC(=O)[C@H](CCCN)NC(=O)[C@@H](NC(=O)[C@H](Cc1ccc(O)cc1)NC(=O)[C@H](CCC(N)=O)NC(=O)[C@H](CC(N)=O)NC(=O)[C@H](CCCCN)NC(=O)[C@H](Cc1ccccc1)NC(=O)[C@@H]1CCCN1C(=O)[C@H](N)Cc1ccccc1)C(C)C`, in assay [1], the k cat was 0.233 s⁻¹. Further, the Ratio in assay [2] turned out to be 0.92.

Turning to `CC(=O)NCCSC(=O)[C@H](CC(C)C)NC(=O)[C@H](CCCN)NC(=O)[C@@H](NC(=O)[C@H](Cc1ccc(O)cc1)NC(=O)[C@H](CCC(N)=O)NC(=O)[C@H](CC(N)=O)NC(=O)[C@@H](Cc1ccccc1)NC(=O)[C@H](CC(N)=O)NC(=O)[C@@H]1CCCN1C(=O)[C@H](N)Cc1ccccc1)C(C)C`, the k cat in assay [1] amounted to 0.233 s⁻¹. In addition, the Ratio in assay [2] was found to be 0.083.

Regarding `CC(=O)NCCSC(=O)[C@H](CC(C)C)NC(=O)[C@H](CCCN)NC(=O)[C@@H](NC(=O)[C@H](Cc1ccc(O)cc1)NC(=O)[C@H](CCC(N)=O)NC(=O)[C@H](CC(N)=O)NC(=O)[C@H](Cc1c[nH]cn1)NC(=O)[C@H](Cc1ccccc1)NC(=O)[C@@H]1CCCN1C(=O)[C@H](N)Cc1ccccc1)C(C)C`, the k cat in assay [1] was 0.2 s⁻¹. Moreover, in assay [2], the Ratio turned out to be 0.15.

On to `CC(=O)NCCSC(=O)[C@H](CC(C)C)NC(=O)[C@H](CCCN)NC(=O)[C@@H](NC(=O)[C@H](Cc1ccc(O)cc1)NC(=O)[C@H](CCC(N)=O)NC(=O)[C@H](CC(N)=O)NC(=O)[C@H](CCC(N)=O)NC(=O)[C@H](Cc1ccccc1)NC(=O)[C@@H]1CCCN1C(=O)[C@H](N)Cc1ccccc1)C(C)C`, for which the k cat in assay [1] came to 0.117 s⁻¹. The Ratio in assay [2] was found to be 0.43.

For the compound `CC(=O)NCCSC(=O)[C@H](CC(C)C)NC(=O)[C@H](CCCN)NC(=O)[C@@H](NC(=O)[C@H](Cc1ccc(O)cc1)NC(=O)[C@H](CCC(N)=O)NC(=O)[C@H](CC(N)=O)NC(=O)[C@@H](Cc1ccccc1)NC(=O)[C@H](Cc1ccccc1)NC(=O)[C@@H]1CCCN1C(=O)[C@H](N)Cc1ccccc1)C(C)C` (stereo in doubt; form 2), the k cat in assay [1] came to 0.55 s⁻¹. The Ratio in assay [2] was 2.65.

In the case of `CC(=O)NCCSC(=O)[C@H](CC(C)C)NC(=O)[C@H](CCCN)NC(=O)[C@H](CC(N)=O)NC(=O)[C@H](Cc1ccc(O)cc1)NC(=O)[C@H](CCC(N)=O)NC(=O)[C@H](CC(N)=O)NC(=O)[C@@H](Cc1ccccc1)NC(=O)[C@H](Cc1ccccc1)NC(=O)[C@@H]1CCCN1C(=O)[C@H](N)Cc1ccccc1`, the k cat in assay [1] was 0.2 s⁻¹. In addition, in assay [2], the Ratio was 0.22.

`CC(=O)NCCSC(=O)[C@H](CC(C)C)NC(=O)[C@H](CCCN)NC(=O)[C@@H](NC(=O)[C@H](Cc1ccc(O)cc1)NC(=O)[C@H](CCC(N)=O)NC(=O)[C@@H](NC(=O)[C@@H](Cc1ccccc1)NC(=O)[C@H](Cc1ccccc1)NC(=O)[C@@H]1CCCN1C(=O)[C@H](N)Cc1ccccc1)C(C)C)C(C)C`: the k cat in assay [1] came to 0.12 s⁻¹. The Ratio in assay [2] worked out at 0.29.

With `CC[C@H](C)[C@H](NC(=O)[C@H](Cc1ccccc1)NC(=O)[C@@H]1CCCN1C(=O)[C@H](N)Cc1ccccc1)C(=O)N[C@@H](CC(N)=O)C(=O)N[C@@H](CCC(N)=O)C(=O)N[C@@H](Cc1ccc(O)cc1)C(=O)N[C@H](C(=O)N[C@@H](CCCN)C(=O)N[C@@H](CC(C)C)C(=O)SCCNC(C)=O)C(C)C`, the k cat in assay [1] worked out at 0.183 s⁻¹. In addition, the Ratio in assay [2] was found to be 0.33.

As for `CC(=O)NCCSC(=O)[C@H](CC(C)C)NC(=O)[C@H](CCCN)NC(=O)[C@H](CCCN=C(N)N)NC(=O)[C@H](Cc1ccc(O)cc1)NC(=O)[C@H](CCC(N)=O)NC(=O)[C@H](CC(N)=O)NC(=O)[C@@H](Cc1ccccc1)NC(=O)[C@H](Cc1ccccc1)NC(=O)[C@@H]1CCCN1C(=O)[C@H](N)Cc1ccccc1`, in assay [1], the k cat came out at 0.15 s⁻¹. Also, the Ratio in assay [2] came out at 0.28.

Consider `CC(=O)NCCSC(=O)[C@H](CC(C)C)NC(=O)[C@H](CCCN)NC(=O)[C@@H](NC(=O)[C@H](CC(N)=O)NC(=O)[C@H](CCC(N)=O)NC(=O)[C@H](CC(N)=O)NC(=O)[C@@H](Cc1ccccc1)NC(=O)[C@H](Cc1ccccc1)NC(=O)[C@@H]1CCCN1C(=O)[C@H](N)Cc1ccccc1)C(C)C`, for which, in assay [1], the k cat amounted to 0.333 s⁻¹. Besides, the Ratio in assay [2] was 2.63.

Take `CC(=O)NCCSC(=O)[C@H](CC(C)C)NC(=O)[C@H](CCCN)NC(=O)[C@@H](NC(=O)[C@H](Cc1ccc(O)cc1)NC(=O)[C@H](CCC(N)=O)NC(=O)[C@H](CC(N)=O)NC(=O)[C@H](CCC(=O)O)NC(=O)[C@H](Cc1ccccc1)NC(=O)[C@@H]1CCCN1C(=O)[C@H](N)Cc1ccccc1)C(C)C`: the k cat in assay [1] was found to be 0.11 s⁻¹. Further, the Ratio in assay [2] was 0.57.

For `CC(=O)NCCSC(=O)[C@H](CC(C)C)NC(=O)[C@H](CCCN)NC(=O)[C@H](CCC(N)=O)NC(=O)[C@H](Cc1ccc(O)cc1)NC(=O)[C@H](CCC(N)=O)NC(=O)[C@H](CC(N)=O)NC(=O)[C@@H](Cc1ccccc1)NC(=O)[C@H](Cc1ccccc1)NC(=O)[C@@H]1CCCN1C(=O)[C@H](N)Cc1ccccc1`, in assay [1], the k cat worked out at 0.233 s⁻¹. The Ratio in assay [2] stood at 0.22.

`CC(=O)NCCSC(=O)[C@H](CC(C)C)NC(=O)[C@H](CCCN)NC(=O)[C@@H](NC(=O)[C@H](Cc1ccc(O)cc1)NC(=O)[C@H](CCC(N)=O)NC(=O)[C@H](CC(N)=O)NC(=O)[C@H](Cc1c[nH]c2ccccc12)NC(=O)[C@H](Cc1ccccc1)NC(=O)[C@@H]1CCCN1C(=O)[C@H](N)Cc1ccccc1)C(C)C`: the k cat in assay [1] stood at 0.12 s⁻¹. For the same compound, the Ratio in assay [2] stood at 0.95.

As to `CC(=O)NCCSC(=O)[C@H](CC(C)C)NC(=O)[C@H](CCCN)NC(=O)[C@@H](NC(=O)[C@H](Cc1ccc(O)cc1)NC(=O)[C@H](CCC(N)=O)NC(=O)[C@H](CC(N)=O)NC(=O)[C@@H](NC(=O)[C@H](Cc1ccccc1)NC(=O)[C@@H]1CCCN1C(=O)[C@H](N)Cc1ccccc1)[C@@H](C)O)C(C)C`, the k cat in assay [1] came to 0.135 s⁻¹. In addition, the Ratio in assay [2] was found to be 0.26.

For the compound `CC(=O)NCCSC(=O)[C@H](CC(C)C)NC(=O)[C@H](CCCN)NC(=O)[C@@H](NC(=O)[C@H](Cc1ccc(O)cc1)NC(=O)[C@H](CCC(N)=O)NC(=O)[C@H](CC(N)=O)NC(=O)[C@H](CS)NC(=O)[C@H](Cc1ccccc1)NC(=O)[C@@H]1CCCN1C(=O)[C@H](N)Cc1ccccc1)C(C)C`, in assay [1], the k cat came to 0.11 s⁻¹. Also, the Ratio in assay [2] turned out to be 0.25.

As to `CC(=O)NCCSC(=O)[C@H](CC(C)C)NC(=O)[C@H](CCCN)NC(=O)[C@@H](NC(=O)[C@H](Cc1ccc(O)cc1)NC(=O)[C@H](CCC(N)=O)NC(=O)[C@H](CC(N)=O)NC(=O)[C@@H](Cc1ccccc1)NC(=O)[C@H](Cc1ccccc1)NC(=O)[C@H](CC(=O)O)NC(=O)[C@H](N)Cc1ccccc1)C(C)C`, in assay [1], the k cat amounted to 0.167 s⁻¹. Besides, the Ratio in assay [2] stood at 0.11.
